Several values for one entry are separate records, joined by “and”; a condition that tells them apart may be missing. Identical values can stand only once.
How the values were obtained:
[1] = system: Erwinia chrysanthemi L-asparaginase (ErA) variants ErA-E63Q, ErA-DM2 (A31I-E63Q) and ErA-DM1 (E63Q-S254N); assay: L-glutaminase activity of the mutants as a group vs ErA-WT; format: biochemical
Description: (§1) A conventional assay for determining L-glutaminase activity (Gella & Pascual (1982) Anal. Biochem. 127:322-5) was used with some modifications. The purified enzyme was mixed into a solution containing 50 mM Tris-HCl pH 8.5, 1 mg/mL BSA, 7 U GDH (Glutamate dehydrogenase, Sigma-Aldrich), 3 mM INT (Iodonitrotetrazolium chloride, Sigma-Aldrich), 100 mM PMS (Phenazine methosulfate, Sigma-Aldrich), and 100 mM NAD+. […] The latter, in the presence of NAD+ and under the catalysis of GDH, is broken further into α-ketoglutarate and ammonia. NADH produced by this second reaction, together with INT serve as inputs to the third reaction, where the formation of INT-formazan under the catalysis of PMS can be followed spectrophotometrically as an increase in absorbance at 500 nm. All reactions were carried out at 37° C. 1 IU of enzyme is defined as the amount of enzyme used to produce 1 μmole of product in 1 minute at 37° C.
(§2) Using colorimetric enzyme-coupled assays, L-asparaginase and L-glutaminase activity of the enzymes was determined.

[2] = target: T1, Erwinia chrysanthemi L-asparaginase (ErA) variant E63Q-S254Q (ErA-DM3), SEQ ID NO:5 (Dickeya chrysanthemi, UniProt P06608, E84Q/S275N); assay: L-glutaminase activity, GDH/INT coupled assay; format: biochemical; conditions: Gln, head prints 50 mM
T1 construct: lacking the first 21-amino acid residue signal peptide; His6-SUMO (yeast Smt3p) (N, cleaved yes); made in house; host or cells: E. coli BL21(DE3) C41
Description: as §1, §2

[3] = target: T2, Erwinia chrysanthemi L-asparaginase (ErA) variant E63Q-S254Q (ErA-DM3), SEQ ID NO:5 (Dickeya chrysanthemi, UniProt P06608, E84Q/S275Q); assay: L-glutaminase activity, GDH/INT coupled assay; format: biochemical
T2 construct: lacking the first 21-amino acid residue signal peptide; His6-SUMO (yeast Smt3p) (N, cleaved yes); made in house; host or cells: E. coli BL21(DE3) C41
Description: as §1, §2

[4] = target: T3, Erwinia chrysanthemi L-asparaginase, wild type (ErA-WT), SEQ ID NO:1 (Dickeya chrysanthemi, UniProt P06608); assay: L-glutaminase activity, GDH/INT coupled assay; format: biochemical
T3 construct: lacking the first 21-amino acid residue signal peptide; His6-SUMO (yeast Smt3p) (N, cleaved yes); made in house; host or cells: E. coli BL21(DE3) C41
Description: as §1, §2

[5] = system: Erwinia chrysanthemi L-asparaginase (ErA) variant E63Q-S254Q (ErA-DM3), SEQ ID NO:5; assay: L-glutaminase activity, GDH/INT coupled assay; format: biochemical; conditions: Gln, 37° C
Description: as §1, §2

[6] = target: T4, Erwinia chrysanthemi L-asparaginase (ErA) variant E63Q-S254N (ErA-DM1), SEQ ID NO:3 (Dickeya chrysanthemi, UniProt P06608, E84Q/S275N); format: biochemical
T4 construct: lacking the first 21-amino acid residue signal peptide; His6-SUMO (yeast Smt3p) (N, cleaved yes); made in house; host or cells: E. coli BL21(DE3) C41
Description: as §1, §2

[7] = target: T5, Erwinia chrysanthemi L-asparaginase (ErA) variant A31I-E63Q (ErA-DM2), SEQ ID NO:4 (Dickeya chrysanthemi, UniProt P06608, A52I/E84Q); format: biochemical
T5 construct: lacking the first 21-amino acid residue signal peptide; His6-SUMO (yeast Smt3p) (N, cleaved yes); made in house; host or cells: E. coli BL21(DE3) C41
Description: as §1, §2

[8] = target: Erwinia chrysanthemi L-asparaginase (ErA) variant A31I-E63Q-S254Q (ErA-TM2), SEQ ID NO:6 (Dickeya chrysanthemi, UniProt P06608, A52I/E84Q/S275Q)
Description: as §1

[9] = target: T6, Erwinia chrysanthemi L-asparaginase (ErA) variant A31I-E63Q-S254N (ErA-TM1), SEQ ID NO:7 (Dickeya chrysanthemi, UniProt P06608, A52I/E84Q/S275N); format: biochemical
T6 construct: lacking the first 21-amino acid residue signal peptide; His6-SUMO (yeast Smt3p) (N, cleaved yes); made in house; host or cells: E. coli BL21(DE3) C41
Description: as §1

[10] = target: Erwinia chrysanthemi L-asparaginase (ErA) variant E63Q (ErA-E63Q), SEQ ID NO:2 (Dickeya chrysanthemi, UniProt P06608, E84Q); format: biochemical; parameters: lacking the first 21-amino acid residue signal peptide; His6-SUMO (yeast Smt3p) (N, cleaved yes); made in house; host or cells: E. coli BL21(DE3) C41
Description: as §1, §2

[11] = target: T7, Escherichia coli L-asparaginase, wild type (EcA-WT), SEQ ID NO:9 (Escherichia coli, UniProt P00805); assay: L-glutaminase activity, GDH/INT coupled assay; format: biochemical
T7 sequence (P00805 with tags, fused parts or gaps): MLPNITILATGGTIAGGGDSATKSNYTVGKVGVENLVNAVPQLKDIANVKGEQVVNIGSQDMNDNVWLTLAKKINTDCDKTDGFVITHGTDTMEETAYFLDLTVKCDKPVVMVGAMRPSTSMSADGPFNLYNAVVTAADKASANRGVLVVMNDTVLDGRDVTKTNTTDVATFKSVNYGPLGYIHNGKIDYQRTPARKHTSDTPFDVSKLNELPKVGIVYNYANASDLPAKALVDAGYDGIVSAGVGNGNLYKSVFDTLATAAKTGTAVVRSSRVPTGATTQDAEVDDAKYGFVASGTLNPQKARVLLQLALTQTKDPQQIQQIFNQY
Description: as §1

NC(=O)C[C@H](N)C(=O)O [12] = assay: purified protein, by the assay type; format: biochemical, Erwinia chrysanthemi; conditions: other: Asn, 37° C
Description: (§3) L-asparaginase activity was determined using a continuous spectroscopic enzyme-coupled assay as previously described (Schalk, et al. (2014) J. Biol. Chem. 289:33175-33186). In brief, the assay measures the production of L-aspartate through the 1:1 oxidation of reduced NADH. The conversion of NADH to NAD^+ was measured spectrophotometrically as a decrease in absorbance at 340 nm at 37° C. All measurements were taken in triplicate. Rates were fit to the Michaelis-Menten equation using SIGMAPLOT software (Systat Software Inc).
Using colorimetric enzyme-coupled assays, L-asparaginase and L-glutaminase activity of the enzymes was determined. […] Seventeen of the 18 mutants had reduced L-glutaminase activity (Table 7). However, for most of the mutants, this decrease was concomitant with a decline in the L-asparaginase activity. Using the criteria of (i) ≥60% retained L-asparaginase activity (relative to Erw-WT) and (ii) ≤5% L-glutaminase versus and L-asparaginase activity, mutants ErA-E63Q, ErA-S254P, ErA-A31I+E63Q and ErA-S254N+E63Q were selected for further study.

NC(=O)CC[C@H](N)C(=O)O = assay: purified protein, by the assay type; conditions: other: Gln, 37° C, pH 8.5
NC(=O)C[C@H](N)C(=O)O [13] = assay: purified protein, by the assay type; conditions: other: Asn, 37° C
NC(=O)C[C@H](N)C(=O)O [14] = assay: purified protein, by the assay type; format: biochemical, Erwinia chrysanthemi; conditions: other: Asn, 37° C; remark: listed apart in the source
[15] = substrate: NC(=O)C[C@H](N)C(=O)O; assay: L-asparaginase activity, continuous spectroscopic enzyme-coupled assay; format: biochemical, Escherichia coli; conditions: other: Asn, 37° C
Description: as §3
The parameters that define the asparagine-depleting power of such enzyme drugs are of significance. […] Enzymologists often combine these two parameters into a single value (kcat/Km) that is thought to represent the efficiency of the enzyme. […] Therefore, the ErA enzyme was selected for developing a variant with low L-glutaminase activity.

[16] = substrate: NC(=O)CC[C@H](N)C(=O)O; assay: L-glutaminase activity, GDH/INT coupled assay; format: biochemical, Escherichia coli; conditions: other: Gln, 37° C, pH 8.5
Description: as §1

## NC(=O)CC[C@H](N)C(=O)O [Gln, L-glutamine]
[1]; 0.5 mM Gln, relative to ErA-WT
  observed L-glutaminase rate reduced by: 95-99%
[1]; Gln, vs ErA-WT
  L-glutaminase efficiency (kcat/Km) reduced by: 20-400 fold
  increased Km (fold higher compared ErA-WT): 8-44 fold
  reduced kcat (fold lower compared ErA-WT): 3-9 fold
[2]
  kobs @ 50 mM: 0.11 s⁻¹
[3]; 100 μM Gln
  kobs @100 μM: 0.009 s⁻¹
[3]; 0.5 mM Gln
  kobs @0.5 mM: 0.0226 s⁻¹
[3]; 500 μM Gln
  kobs @500 μM: 0.02 s⁻¹
[3]; 1 mM Gln
  kobs @1 mM: 0.19 s⁻¹
[4]; 100 μM Gln
  kobs @100 μM: 6.118 s⁻¹
[4]; 0.5 mM Gln
  kobs @0.5 mM: 15.87 s⁻¹
[4]; 500 μM Gln
  kobs @500 μM: 15.06 s⁻¹
[4]; 1 mM Gln
  kobs @1 mM: 19.22 s⁻¹
[4]; Gln, 37° C
  kcat/Km: 74.56 × 10^−3 sec^−1μM^−1
[4]; Gln, head prints 50 mM
  kobs @ 50 mM: 15.87 s⁻¹
[5]
  Km: 84 mM
[6]; 100 μM Gln
  kobs @100 μM: 0.019 s⁻¹
[6]; 0.5 mM Gln
  kobs @0.5 mM: 0.11 s⁻¹
[6]; 500 μM Gln
  kobs @500 μM: 0.07 s⁻¹
[6]; 1 mM Gln
  kobs @1 mM: 0.18 s⁻¹
[6]; Gln, 37° C
  Km: 15.8 ± 0.3 mM
  kcat: 2.93 ± 0.03 s⁻¹
  kcat/Km: 0.19 × 10^−3 sec^−1μM^−1
[7]; 100 μM Gln
  kobs @100 μM: 0.105 s⁻¹
[7]; 0.5 mM Gln
  kobs @0.5 mM: 0.83 s⁻¹
[7]; 500 μM Gln
  kobs @500 μM: 0.73 s⁻¹
[7]; 1 mM Gln
  kobs @1 mM: 2.20 s⁻¹
[7]; Gln, 37° C
  Km: 2.73 ± 0.02 mM
  kcat: 6.01 ± 0.13 s⁻¹
  kcat/Km: 2.2 × 10^−3 sec^−1μM^−1
[8]; 100 μM Gln
  kobs @100 μM: 0.0045 s⁻¹
[8]; 0.5 mM Gln
  kobs @0.5 mM: 0.0083 s⁻¹
[8]; 500 μM Gln
  kobs @500 μM: 0.0083 s⁻¹
[8]; Gln, 37° C
  Km: 47.5 mM
  kcat: 1.836 ± 0.11 s⁻¹
  kcat/Km: 0.04 × 10^−3 sec^−1μM^−1
[9]; 0.5 mM Gln
  kobs @0.5 mM: 0.11 s⁻¹
[9]; 1 mM Gln
  kobs @1 mM: 0.33 s⁻¹
[9]; Gln, 37° C
  Km: 28.2 mM
  kcat: 5.6 ± 0.2 s⁻¹
  kcat/Km: 0.19 × 10^−3 sec^−1μM^−1
[10]; 100 μM Gln
  kobs @100 μM: 0.098 s⁻¹
[10]; 0.5 mM Gln
  kobs @0.5 mM: 0.74 s⁻¹
[10]; 500 μM Gln
  kobs @500 μM: 0.72 s⁻¹
[10]; 1 mM Gln
  kobs @1 mM: 2.16 s⁻¹
[10]; Gln, 37° C
  Km: 3.86 ± 0.23 mM
  kcat: 8.33 ± 0.16 s⁻¹
  kcat/Km: 3.68 sec^−1mM^−1 and 3.68 × 10^−3 sec^−1μM^−1
[11]; 100 μM Gln
  kobs @100 μM: 0.047 s⁻¹
[11]; 0.5 mM Gln
  kobs @0.5 mM: 0.22 s⁻¹
[11]; 500 μM Gln
  kobs @500 μM: 0.22 s⁻¹
[11]; 1 mM Gln
  kobs @1 mM: 0.36 s⁻¹
[11]; Gln
  kobs @ 50 mM: 0.22 s⁻¹
[11]; Gln, 37° C
  kcat/Km: 0.64 × 10^−3 sec^−1μM^−1

## Erwinia chrysanthemi L-asparaginase (ErA) variant A31I-E63Q (ErA-DM2), SEQ ID NO:4 (Dickeya chrysanthemi; A52I/E84Q)
NC(=O)C[C@H](N)C(=O)O [12]
  Km: 0.037 mM

## Erwinia chrysanthemi L-asparaginase (ErA) variant A31I-E63Q-S254Q (ErA-TM2), SEQ ID NO:6 (Dickeya chrysanthemi; A52I/E84Q/S275Q)
NC(=O)CC[C@H](N)C(=O)O
  Km: 47.5 ± 0.7 mM

## Erwinia chrysanthemi L-asparaginase (ErA) variant E63Q (ErA-E63Q), SEQ ID NO:2 (Dickeya chrysanthemi; E84Q)
NC(=O)C[C@H](N)C(=O)O [13]
  Km: 0.051 mM

## Erwinia chrysanthemi L-asparaginase (ErA) variant E63Q-S254N (ErA-DM1), SEQ ID NO:3 (Dickeya chrysanthemi; E84Q/S275N)
NC(=O)C[C@H](N)C(=O)O [14]
  Km: 0.185 mM

B1: Escherichia coli L-asparaginase, wild type (EcA-WT), SEQ ID NO:9 (Escherichia coli K-12) (protein)
chain: T7 sequence (P00805 with tags, fused parts or gaps)
[15]
  Km: 0.015 ± 0.0005 mM
  kcat: 44.4 ± 0.3 s⁻¹
  kcat/Km: 2.96e+06 M⁻¹ s⁻¹
[16]
  Km: 1.38 ± 0.09 mM
  kcat: 0.89 ± 0.01 s⁻¹
  kcat/Km: 640 M⁻¹ s⁻¹

Reference: patent US10821160B2, “L-asparaginase variants and fusion proteins with reduced L-glutaminase activity and enhanced stability” (priority 2016, dated 2020)
